Test results reported in US20080261263A1, “In Vitro Evaluation of Micro-Organisms and Their Antimicrobial Agent Susceptibilities” (SYFT Technologies Limited, priority 2005, published 2008).
Converted amounts (≈) assume the structure as drawn.

Experiments:
E. coli [1] = assay: Effect of antibiotic on E. coli blood culture headspace VC production (SIFT-MS SIMscan); assay type: cell-based, Escherichia coli
Source text: (§1) In one form of the method headspace atmospheres are introduced above conventional Biomerieux BacT/ALERT® aerobic or anaerobic blood cultures at a controlled rate into the flow tube precursor ion stream. The count rates of the resulting product ions are then to be determined by a “downstream” quadrupole and particle multiplier detector. Operating in full scan mode, the detector quadrupole is scanned over a predetermined m/z range to obtain a spectrum of product ions. In selected ion mode (SIMscan) the count rate of selected product ions is determined as the downstream […] is switched to and remains on selected m/zs.
(§2) Standard Biomerieux (Durham, N.C., USA) BacT/ALERT® SA, FA and SN disposable, plastic culture bottles containing 40 ml of culture medium were used throughout the experiments. 9 ml of healthy, uninfected human blood and 1 ml aliquots of antibiotics prepared in sterile water were added (in the relevant experiments) as required to each bottle prior to the addition of 1 ml of bacterial species suspended in sterile physiological saline.
(§3) SIFT-MS mass scan studies comparing 24 hour BacT/ALERT®SA blood culture headspace VCs with medium+blood controls identified a test panel of SIM VC analytes suitable for the five bacterial species tested. These bacterial metabolites included acetaldehyde, acetic acid, acetone, 2-aminoacetophenone, ammonia, dimethyldisulfide (DMDS), dimethylsulfide (DMS), formaldehyde, ethanol, hydrogen sulfide, indole, methanethiol, pentanols and propanol. […] absolute concentration measurements in parts per billion (ppb v/v) were integrated, averaged and recorded separately for acetaldehyde, acetic acid, ethanol, acetone, ammonia, hydrogen sulfide, DMS and DMDS during each 30 second SIMscan for each triplicate culture of the five test species after incubation in BacT/ALERT aerobic media. The results are recorded in Table 1 (below).
(§4) Approximately 10^3 CFU E. coli or S. aureus were inoculated into Biomerieux BacT/ALERT® SA bottles including 9 ml of fresh uninfected blood. Each bacterial species was incubated in triplicate either alone or in the presence of antibiotics above or below their predetermined minimal inhibitory concentrations (MIC).
(§5) Gentamicin was added to E. coli cultures at either 2 μg/ml or 0.05 μg/ml (MIC 0.25-1 μg/m)l. Flucloxacillin was added to S. aureus cultures at 2 μg/ml or 0.05 μg/ml (MIC 0.12-0.5 μg/ml).
(§6) The mean, minima and maxima integrated headspace analyte concentration measurements obtained from E. coli and S. aureus cultures are compared in Tables 8 and 9.

E. coli [2] = assay: Predetermined minimal inhibitory concentration (MIC) for E. coli; assay type: cell-based, Escherichia coli
S. aureus [3] = assay: Predetermined minimal inhibitory concentration (MIC) for S. aureus; assay type: cell-based; conditions: Staphylococcus aureus
S. aureus [4] = assay: Effect of antibiotic on S. aureus blood culture headspace VC production (SIFT-MS SIMscan); assay type: cell-based, Staphylococcus aureus; conditions: for Ammonia mean concentration / DMS mean concentration: S. aureus 6 h; for Aminoacetophenone mean concentration / Ethanol mean concentration / Formaldehyde mean concentration: S. aureus 22 h; for Inhibition of aminoacetophenone, ethanol and formaldehyde: S. aureus 22 hours; for Effect on production of ammonia and dimethylsulfide by S. aureus: six hours, flucloxacillin above and below its MIC
Source text: as §1, §2, §3, §4, §5, §6

[5] = E. coli 6 h, gentamicin <MIC (0.05 μg/ml)
[6] = E. coli 6 h, gentamicin >MIC (2 μg/ml)
[7] = E. coli 22 h, gentamicin <MIC (0.05 μg/ml)
[8] = E. coli 22 h, gentamicin >MIC (2 μg/ml)
[9] = flucloxacillin <MIC (0.05 μg/ml)

Gentamicin
Hydrogen sulfide mean concentration (E. coli [1]; [5]): 0 ppb | Pentanols mean concentration (E. coli [1]; [5]): 120 ppb | Hydrogen sulfide mean concentration (E. coli [1]; [6]): 0 ppb | Pentanols mean concentration (E. coli [1]; [6]): 90 ppb | Acetaldehyde mean concentration (E. coli [1]; [7]): 3300 ppb | Acetic acid mean concentration (E. coli [1]; [7]): 1950 ppb | Aminoacetophenone mean concentration (E. coli [1]; [7]): 900 ppb | DMDS mean concentration (E. coli [1]; [7]): 380 ppb | DMS mean concentration (E. coli [1]; [7]): 30 ppb | Ethanol mean concentration (E. coli [1]; [7]): 42000 ppb | Formaldehyde mean concentration (E. coli [1]; [7]): 140 ppb | Hydrogen sulfide mean concentration (E. coli [1]; [7]): 1030 ppb | Indole mean concentration (E. coli [1]; [7]): 210 ppb | Methanethiol mean concentration (E. coli [1]; [7]): 1400 ppb | Pentanols mean concentration (E. coli [1]; [7]): 220 ppb | Propanol mean concentration (E. coli [1]; [7]): 5800 ppb | Acetaldehyde mean concentration (E. coli [1]; [8]): 2700 ppb | Acetic acid mean concentration (E. coli [1]; [8]): 600 ppb | Aminoacetophenone mean concentration (E. coli [1]; [8]): 280 ppb | DMDS mean concentration (E. coli [1]; [8]): 190 ppb | DMS mean concentration (E. coli [1]; [8]): 30 ppb | Ethanol mean concentration (E. coli [1]; [8]): 16000 ppb | Formaldehyde mean concentration (E. coli [1]; [8]): 110 ppb | Hydrogen sulfide mean concentration (E. coli [1]; [8]): 6 ppb | Indole mean concentration (E. coli [1]; [8]): 110 ppb | Methanethiol mean concentration (E. coli [1]; [8]): 150 ppb | Pentanols mean concentration (E. coli [1]; [8]): 90 ppb | Propanol mean concentration (E. coli [1]; [8]): 1700 ppb | Effect on production of all headspace VCs (except formaldehyde) (E. coli [1]; E. coli 22 hours, gentamicin above its MIC, p<0.005): significantly inhibited | Effect on most analytes (except hydrogen sulfide and methanethiol) (E. coli [1]; E. coli 22 hours, gentamicin below its MIC, p<0.01): Significant (p<0.01) reductions | Effect on production of hydrogen sulfide by E. coli (E. coli [1]; six hours, both gentamicin concentrations): eliminated | MIC (E. coli [2]): 0.25 to 1 µg/mL

Cc1onc(-c2c(F)cccc2Cl)c1C(=O)N[C@@H]1C(=O)N2[C@@H]1SC(C)(C)[C@@H]2C(=O)O [Flucloxacillin]
MIC (S. aureus [3]): 0.12 to 0.5 µg/mL (≈ 0.264 to 1.1 µM) | Ammonia mean concentration (S. aureus [4]; [9]): 40 ppb | DMS mean concentration (S. aureus [4]; [9]): 30 ppb | Ammonia mean concentration (S. aureus [4]; flucloxacillin >MIC (2 μg/ml)): 50 ppb | DMS mean concentration (S. aureus [4]; flucloxacillin >MIC (2 μg/ml)): 10 ppb | Aminoacetophenone mean concentration (S. aureus [4]; [9]): 200 ppb | Ethanol mean concentration (S. aureus [4]; [9]): 7500 ppb | Formaldehyde mean concentration (S. aureus [4]; [9]): 60 ppb | Aminoacetophenone mean concentration (S. aureus [4]; flucloxacillin >MIC (2 μg/ml)): 60 ppb | Ethanol mean concentration (S. aureus [4]; flucloxacillin >MIC (2 μg/ml)): 1900 ppb | Formaldehyde mean concentration (S. aureus [4]; flucloxacillin >MIC (2 μg/ml)): 20 ppb | Inhibition of aminoacetophenone, ethanol and formaldehyde (S. aureus [4]; flucloxacillin above its MIC, p<0.01): notable | Inhibition of aminoacetophenone, ethanol and formaldehyde (S. aureus [4]; lower flucloxacillin concentration (below MIC)): not inhibitory | Effect on production of ammonia and dimethylsulfide by S. aureus (S. aureus [4]): significantly reduced | Effect on production of ammonia and dimethylsulfide by S. aureus (S. aureus [4]; listed as flucloxacillin): inhibited to uninoculated, antibiotic-containing control levels
